Results on two compounds are retold here after patent publication US20110262895A1, “METHODS FOR THE DIAGNOSIS OF VARICELLA ZOSTER VIRUS INFECTION” (priority 2008, published 2011).

Experiment [1] has as its system VZV. To be noted: requires VZV thymidine kinase for phosphorylation; cited from earlier work.
Experiment [2] concerns HSV. The following applies: cited from earlier work.
Experiment [3] deals with CMV. To be noted: cited from earlier work.
Experiment [4] relates to varicella-zoster virus (VZV) DNA in saliva. Nature of the experiment: Salivary VZV DNA by real-time PCR in herpes zoster patients treated with valacyclovir. The following applies: oral valacyclovir 1 g 3 times daily for 7 days, 50 patients with follow-up. It counts as in vivo, human. On the procedure:
Methods. All human-study protocols were approved by the Committee for the Protection of Human Subjects of the Lyndon B. Johnson Space Center (control subjects) and by the Institutional Review Board of the University of Texas Health Sciences Center (patients with herpes zoster). Informed consent was obtained from all subjects. The 54 patients with herpes zoster consisted of 29 women (21-82 years old) and 25 men (35-79 years old) (Table 2). All patients with herpes zoster were treated with oral valacyclovir (1 g 3 times daily) for 7 consecutive days. Pain was described by all patients on a scale of 0 (no pain) to 10 (worst pain) (Jacox et al., 1994). […]
Saliva samples from all subjects were obtained by having subjects suck on a cotton plug for 1-2 min, after which the saturated cotton was placed in a salivette tube (Sarstedt). […] Quantitative real-time polymerase chain reaction (PCR) was performed in a TaqMan 7700 sequence detector (Applied Biosystems) using fluorescence-based simultaneous amplification and product detection.
Primers and probes specific for VZV, herpes simplex virus (HSV)-1 and GAPDH DNA sequences have been described elsewhere (Mehta et al., 2004; Cohrs et al., 2000). […] At the height of CPE, cells were analyzed by PCR with HSV-1-specific and VZV-specific primers (Mehta et al., 2004; Cohrs et al., 2000) and by immunohistochemistry for viral antigens.
In general terms: In qPCR the cycle at which signal appears reflects the starting amount.

Experiment [5] in a line: Pain score (0-10) in herpes zoster patients treated with valacyclovir. It counts as in vivo, human. To be noted: oral valacyclovir 1 g 3 times daily for 7 days, 50 patients with follow-up. On the procedure: Methods. All human-study protocols were approved by the Committee for the Protection of Human Subjects of the Lyndon B. Johnson Space Center (control subjects) and by the Institutional Review Board of the University of Texas Health Sciences Center (patients with herpes zoster). Informed consent was obtained from all subjects. The 54 patients with herpes zoster consisted of 29 women (21-82 years old) and 25 men (35-79 years old) (Table 2). All patients with herpes zoster were treated with oral valacyclovir (1 g 3 times daily) for 7 consecutive days. Pain was described by all patients on a scale of 0 (no pain) to 10 (worst pain) (Jacox et al., 1994). Six control subjects consisted of 5 women (24-64 years old) and 1 person with chronic pain due to malignancy or non-VZV inflammatory disease. Fourteen additional healthy control subjects consisted of 9 men and 5 women (34-70 years old). Three saliva samples were collected at weekly intervals from all 6 control subjects with chronic pain and from the 14 healthy control subjects.

With `CC#Cc1cn([C@@H]2O[C@H](CO)[C@@H](O)[C@@H]2O)c(=O)[nH]c1=O` [882C], the “activity against VZV” value in experiment [1] is on record as “specific activity against VZV”. For the same compound, the “activity against HSV” value in experiment [2] is given as “without any significant activity”. Besides, the “activity against CMV” value in experiment [3] is “without any significant activity”.
`CC(C)[C@H](N)C(=O)OCCOCn1cnc2c(=O)[nH]c(N)nc21` [valacyclovir]: the “patients in whom VZV DNA disappeared from saliva” value in experiment [4] (2-week study period) was 82%. Moreover, the “patients in whom virus DNA copy numbers decreased in saliva” value in experiment [4] (14-day study period) is 94%. Also, the “patients in whom pain decreased” value in experiment [5] (14-day study period) is recorded as 86%. The “patients in whom pain disappeared” value in experiment [5] (end of 2-week study period) is given as 74%.
